Results reported in patent publication US20170190744A1 (Vicuron Pharmaceuticals, Inc., priority 2015, published 2017).
≈ marks a conversion by molar mass, not a printed value. Read-outs that look alike come from different tables or passages of the source.

Experiments:
[1] = system: Gram-positive isolates, including MRSA; experiment: Dalbavancin MIC of baseline Gram-positive pathogens (SSTI trial); type: cell-based; conditions: for Dalbavancin MIC, Miscellaneous Streptococcus and nontypeable strains: baseline isolates, MITT
Text: The most common pathogen was S. aureus.

human hepatic microsomes = type: in vitro ADME
[2] = Pharmacokinetics in renal impairment and ESRD (VER001-3, VER001-11, VER001-13)
Description: Clinical Study VER001-13 examined subjects with mild and moderate renal impairment and Clinical Study VER001-11 examined subjects with severe renal impairment and subjects with end-stage renal disease (ESRD). Matched control subjects were enrolled in all studies. […] Subjects with ESRD were dependent on dialysis through the course of the study (3 times weekly).

[3] = Phase II SSTI trial: safety (adverse events); design: species or system human; conditions: in vivo
Description: Each patient who received at least one dose of study drug (ITT population) was evaluated for drug safety through monitoring of adverse events (AE), including abnormal clinical laboratory test results and vital signs. AE were rated by the investigator as to their severity (mild, moderate, severe, life-threatening), and by the relationship to the study drug (not related, unlikely related, possibly related, or probably related).

S. pneumoniae = experiment: MIC of study organisms (NCCLS microdilution); type: cell-based; conditions: five pneumococcal organisms
Description: (§1) MICs were determined in MHB by standard NCCLS microdilution techniques. […] All MICs were performed at least in duplicate.

S. aureus [4] = experiment: MIC of study organisms (NCCLS microdilution); type: cell-based; conditions: for MBC: Staphylococcus aureus
Description: as §1

[5] = Plasma pharmacokinetics in thigh-infected neutropenic mice; conditions: 2.5-80 mg/kg intraperitoneal
Description: Neutropenia in this and all other studies was produced by injections of cyclophosphamide, 150 mg/kg 4 days prior to study, 100 mg/kg 1 day prior to study and 100 mg/kg every 48 h after start of infection until end of study. […] Doses of 2.5, 5, 10, 20, 40, and 80 mg/kg were studied. Drug was administered by intraperitoneal injection of 0.2 ml volume. Blood was removed from groups of three mice by retroorbital aspiration into heparinized capillary tubes at 0.5, 1, 2, 4, 6, 24, 48, 72, and 96 hours after dosing. […] AUC was calculated by the trapezoidal rule from mean concentrations.

S. aureus [6] = experiment: MIC in broth, serum, serum ultrafiltrate and albumin (protein binding); type: cell-based; conditions: Staphylococcus aureus
Text: This degree of binding was considered in subsequent pharmacodynamic analyses. The degree of binding in human serum would be estimated to be 96%.

MRSA Staph. aureus 3817 = experiment: Staph. aureus murine septicaemia, ED50; type: in vivo; conditions: Staphylococcus aureus, sc, 10 min

CN[C@H]1C(=O)N[C@@H]2Cc3ccc(cc3)Oc3cc4cc(c3O[C@@H]3O[C@H](C(=O)O)[C@@H](O)[C@H](O)[C@H]3NC(=O)CCCCCCCCC(C)C)Oc3ccc(cc3Cl)[C@@H](O)[C@@H]3NC(=O)[C@H](NC(=O)[C@@H]4NC(=O)[C@@H](NC2=O)c2cc(cc(O)c2Cl)Oc2cc1ccc2O)c1ccc(O)c(c1)-c1c(O[C@H]2O[C@H](CO)[C@@H](O)[C@H](O)[C@@H]2O)cc(O)cc1[C@@H](C(=O)NCCCN(C)C)NC3=O [Dalbavancin]
MICs against Gram-positive isolates, including MRSA (range) ([1]; baseline isolates of the SSTI trial): 0.016 to 0.25 mg/L | Dalbavancin MIC, Miscellaneous Streptococcus and nontypeable strains ([1]; Single dose Dalbavancin (1100 mg) arm): (0.016) | Dalbavancin MIC, Miscellaneous Streptococcus and nontypeable strains ([1]; Two-dose Dalbavancin (1000/500 mg) arm): (0.016) | effect on metabolism of marker substrates (human hepatic microsomes): did not affect the metabolism of marker substrates | t1/2 ([2]; ESRD Postdialysis, VER001-11, 500 mg): 14.5 days | t1/2 ([2]; ESRD Predialysis, VER001-11, 500 mg): 15.7 days | t1/2 ([2]; Mild Renal Impairment, VER001-13, 1000 mg): 16.2 days | t1/2 ([2]; Moderate Renal Impairment, VER001-13, 1000 mg): 18 days | t1/2 ([2]; Normal Renal Function, VER001-2, 1120 mg): 6.21 days | t1/2 ([2]; Normal Renal Function, VER001-11, 500 mg): 13.9 days | t1/2 ([2]; Normal Renal Function, VER001-13, 1000 mg): 17.4 days | t1/2 ([2]; Severe Renal Impairment, VER001-11, 500 mg): 18.9 days | t1/2 ([2]; Severe Renal Impairment, VER001-11, 1000 mg): 19.5 days | increase in concentrations through the first week post-dose vs normal renal function ([2]; subjects with severe renal impairment (VER001-11)): 40% | premature discontinuation of treatment due to an AE [3]: No dalbavancin-treated patient discontinued treatment prematurely due to an AE | MIC range (S. pneumoniae): 0.004 to 0.03 µg/mL | MBC (S. aureus [4]; S. aureus strain 307109): 0.12 µg/mL | MBC (S. aureus [4]; SA31005): 0.12 µg/mL | MIC range (S. aureus [4]; six S. aureus isolates): 0.06 to 0.12 µg/mL | half-life [5]: 0.317 to 0.546 days | MIC (S. aureus [6]; MRSA, read-out: MIC 95% Human Albumin, S. aureus strain MRSA): 8 µg/mL (≈ 4.4 µM) | MIC (S. aureus [6]; MRSA, read-out: MIC 95% Human Serum, S. aureus strain MRSA): 8 µg/mL (≈ 4.4 µM) | MIC (S. aureus [6]; MRSA, read-out: MIC 95% Mouse Serum Ultrafiltrate, S. aureus strain MRSA): 0.5 µg/mL (≈ 0.275 µM) | MIC (S. aureus [6]; MRSA, read-out: MIC 95% Mouse Serum, S. aureus strain MRSA): 32 µg/mL (≈ 17.6 µM) | MIC (S. aureus [6]; human serum and albumin): 8 µg/mL (≈ 4.4 µM) | MIC (S. aureus [6]; mouse serum ultrafiltrate): 0.5 µg/mL (≈ 0.275 µM) | MIC (S. aureus [6]; read-out: MIC 95% Human Albumin, S. aureus strain 25923): 8 µg/mL (≈ 4.4 µM) | MIC (S. aureus [6]; read-out: MIC 95% Human Serum, S. aureus strain 25923): 8 µg/mL (≈ 4.4 µM) | MIC (S. aureus [6]; read-out: MIC 95% Mouse Serum Ultrafiltrate, S. aureus strain 25923): 0.5 µg/mL (≈ 0.275 µM) | MIC (S. aureus [6]; read-out: MIC 95% Mouse Serum, S. aureus strain 25923): 32 µg/mL (≈ 17.6 µM) | MIC (S. aureus [6]; read-out: MIC (arithmetic), 95% mouse serum): 32 µg/mL (≈ 17.6 µM) | ED50 (MRSA Staph. aureus 3817): 0.7 mg/kg
